Reference: patent US9315490B2, “2,5-substituted pyrimidines” (Grünenthal GmbH, priority 2014, dated 2016)

molecular target: T1, human PDE4B1 (Homo sapiens, UniProt Q07343); assay: cAMP HTRF assay to determine the activity of hPDE4B1; format: biochemical; details: inhibition of PDE4B at a test concentration of 1 μM
T1 construct: host or cells: Sf9 cells
Method in brief: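 Human recombinant PDE4B1 from Sf9 cells (4.8 U) in Tris-HCl, MgCl2, DTT, Tween 20 buffer at pH 7.8 with 40 nM cAMP (final), 30 min at room temperature. Reaction stopped with 1 mM IBMX; remaining cAMP detected by HTRF (665/620 nm ratio). IC50 from eight-concentration curves.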

T1 sequence (Q07343 whole entry): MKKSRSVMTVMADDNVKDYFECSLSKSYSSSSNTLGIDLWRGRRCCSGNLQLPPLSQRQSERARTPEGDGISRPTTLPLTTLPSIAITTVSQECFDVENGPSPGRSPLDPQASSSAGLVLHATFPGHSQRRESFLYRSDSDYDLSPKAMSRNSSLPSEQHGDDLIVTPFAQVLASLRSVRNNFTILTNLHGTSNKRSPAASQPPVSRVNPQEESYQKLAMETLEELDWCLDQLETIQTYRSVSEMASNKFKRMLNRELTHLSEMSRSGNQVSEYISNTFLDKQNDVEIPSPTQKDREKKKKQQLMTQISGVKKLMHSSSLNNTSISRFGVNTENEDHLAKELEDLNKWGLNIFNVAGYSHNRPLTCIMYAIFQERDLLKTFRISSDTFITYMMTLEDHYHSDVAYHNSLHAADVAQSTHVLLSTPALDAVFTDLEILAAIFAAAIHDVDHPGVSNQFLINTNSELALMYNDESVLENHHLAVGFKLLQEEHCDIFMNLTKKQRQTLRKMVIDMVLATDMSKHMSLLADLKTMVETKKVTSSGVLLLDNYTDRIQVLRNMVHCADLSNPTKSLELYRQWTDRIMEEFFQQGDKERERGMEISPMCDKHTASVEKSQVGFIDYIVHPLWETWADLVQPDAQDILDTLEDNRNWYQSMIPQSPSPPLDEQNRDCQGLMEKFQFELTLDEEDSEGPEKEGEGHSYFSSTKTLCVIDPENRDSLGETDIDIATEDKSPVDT

Q: Which inhibition at 1 µM does the source give for `CN1CCCN(C(=O)c2ccc3c([S+](C)[O-])cn(-c4ncc(-c5ccccc5F)cn4)c3c2)CC1` (stereo not shown) [Example 376, (1-(5-(2-Fluorophenyl)pyrimidin-2-yl)-3-(methylsulfinyl)-1H-indol-6-yl)(4-methyl-1,4-diazepan-1-yl)methanone] here?
A: The inhibition at 1 µM was 31%.

Q: For `C[S+]([O-])c1cn(-c2ncc(-c3ccccc3F)cn2)c2cc(C(=O)N3CCCCC3CO)ccc12` (stereo not shown) [Example 379, (1-(5-(2-Fluorophenyl)pyrimidin-2-yl)-3-(methylsulfinyl)-1H-indol-6-yl)(2-(hydroxymethyl)piperidin-1-yl)methanone], which inhibition at 1 µM is on record?
A: The inhibition at 1 µM was 50%.

Q: Which inhibition at 1 µM does the source give for `C[S+]([O-])c1cn(-c2ncc(-c3ccccc3F)cn2)c2cc(C(=O)N3CCC(CO)CC3)ccc12` (stereo not shown) [Example 380, (1-(5-(2-Fluorophenyl)pyrimidin-2-yl)-3-(methylsulfinyl)-1H-indol-6-yl)(4-(hydroxymethyl)piperidin-1-yl)methanone] here?
A: Its inhibition at 1 µM is 9%.

Q: Which inhibition at 1 µM does the source give for `CN(C(=O)c1ccc2c([S+](C)[O-])cn(-c3ncc(-c4ccccc4F)cn3)c2c1)C1CCOCC1` (stereo not shown) [Example 382, 1-(5-(2-Fluorophenyl)pyrimidin-2-yl)-N-methyl-3-(methylsulfinyl)-N-(tetrahydro-2H-pyran-4-yl)-1H-indole-6-carboxamide] here?
A: Its inhibition at 1 µM is 0%.

Q: `C[S+]([O-])c1cn(-c2ncc(-c3ccccc3F)cn2)c2cc(C(=O)N3CCOC(C)(C)C3)ccc12` (stereo not shown) [Example 383, (2,2-Dimethylmorpholino)(1-(5-(2-fluorophenyl)pyrimidin-2-yl)-3-(methylsulfinyl)-1H-indol-6-yl)methanone] was tested. Which inhibition at 1 µM did it give?
A: Its inhibition at 1 µM is 68%.

Q: Which inhibition at 1 µM does the source give for `C[S+]([O-])c1cn(-c2ncc(-c3ccccc3F)cn2)c2cc(C(=O)N3CCC4(CC3)COC4)ccc12` (stereo not shown) [Example 384, (1-(5-(2-Fluorophenyl)pyrimidin-2-yl)-3-(methylsulfinyl)-1H-indol-6-yl)(2-oxa-7-azaspiro[3.5]nonan-7-yl)methanone] here?
A: The inhibition at 1 µM was 3%.

Q: How did the inhibition at 1 µM turn out when `CC(=O)N1CCN(C(=O)c2ccc3c([S+](C)[O-])cn(-c4ncc(-c5ccccc5F)cn4)c3c2)CC1` (stereo not shown) [Example 385, 1-(4-(1-(5-(2-Fluorophenyl)pyrimidin-2-yl)-3-(methylsulfinyl)-1H-indole-6-carbonyl)piperazin-1-yl)ethanone] was run?
A: Its inhibition at 1 µM is 0%.

Q: Which inhibition at 1 µM does the source give for `CC(C)N1CCN(C(=O)c2ccc3c([S+](C)[O-])cn(-c4ncc(-c5ccccc5F)cn4)c3c2)CC1` (stereo not shown) [Example 386, (1-(5-(2-Fluorophenyl)pyrimidin-2-yl)-3-(methylsulfinyl)-1H-indol-6-yl)(4-isopropylpiperazin-1-yl)methanone] here?
A: Its inhibition at 1 µM is 6%.

Q: With `CN(C)C1CCN(C(=O)c2ccc3c([S+](C)[O-])cn(-c4ncc(-c5ccccc5F)cn4)c3c2)CC1` (stereo not shown) [Example 387, (4-(Dimethylamino)piperidin-1-yl)(1-(5-(2-fluorophenyl)pyrimidin-2-yl)-3-(methylsulfinyl)-1H-indol-6-yl)methanone] as the molecule, how does the inhibition at 1 µM read?
A: Its inhibition at 1 µM is 8%.

Q: With `COC(=O)C1CCN(C(=O)c2ccc3c([S+](C)[O-])cn(-c4ncc(-c5ccccc5F)cn4)c3c2)C1` (stereo not shown) [Example 388, Methyl 1-(1-(5-(2-fluorophenyl)pyrimidin-2-yl)-3-(methylsulfinyl)-1H-indole-6-carbonyl)pyrrolidine-3-carboxylate] as the molecule, how does the inhibition at 1 µM read?
A: Its inhibition at 1 µM is 45%.

Q: `C[S+]([O-])c1cn(-c2ncc(-c3ccccc3F)cn2)c2cc(C(=O)N3CCN(CCO)CC3)ccc12` (stereo not shown) [Example 389, (1-(5-(2-Fluorophenyl)pyrimidin-2-yl)-3-(methylsulfinyl)-1H-indol-6-yl)(4-(2-hydroxyethyl)piperazin-1-yl)methanone] was tested. Which inhibition at 1 µM did it give?
A: The inhibition at 1 µM was 52%.

Q: `C[S+]([O-])c1cn(-c2ncc(-c3ccccc3F)cn2)c2cc(C(=O)N3CCS(=O)(=O)CC3)ccc12` (stereo not shown) [Example 390, (1,1-Dioxidothiomorpholino)(1-(5-(2-fluorophenyl)pyrimidin-2-yl)-3-(methylsulfinyl)-1H-indol-6-yl)methanone] was tested. Which inhibition at 1 µM did it give?
A: The inhibition at 1 µM was 6%.

Q: How did the inhibition at 1 µM turn out when `C[S+]([O-])c1cn(-c2ncc(-c3ccccc3F)cn2)c2cc(C(=O)N3CCN(CCC#N)CC3)ccc12` (stereo not shown) [Example 391, 3-(4-(1-(5-(2-Fluorophenyl)pyrimidin-2-yl)-3-(methylsulfinyl)-1H-indole-6-carbonyl)piperazin-1-yl)propanenitrile] was run?
A: The inhibition at 1 µM was 31%.

Q: With `COCCN1CCN(C(=O)c2ccc3c([S+](C)[O-])cn(-c4ncc(-c5ccccc5F)cn4)c3c2)CC1` (stereo not shown) [Example 392, (1-(5-(2-Fluorophenyl)pyrimidin-2-yl)-3-(methylsulfinyl)-1H-indol-6-yl)(4-(2-methoxyethyl)piperazin-1-yl)methanone] as the molecule, how does the inhibition at 1 µM read?
A: Its inhibition at 1 µM is 0%.

Q: For `CCOC(=O)C1CCN(C(=O)c2ccc3c([S+](C)[O-])cn(-c4ncc(-c5ccccc5F)cn4)c3c2)CC1` (stereo not shown) [Example 393, Ethyl 1-(1-(5-(2-fluorophenyl)pyrimidin-2-yl)-3-(methylsulfinyl)-1H-indole-6-carbonyl)piperidine-4-carboxylate], which inhibition at 1 µM is on record?
A: The inhibition at 1 µM was 10%.

Q: For `CCOC(=O)N1CCN(C(=O)c2ccc3c([S+](C)[O-])cn(-c4ncc(-c5ccccc5F)cn4)c3c2)CC1` (stereo not shown) [Example 394, Ethyl 4-(1-(5-(2-fluorophenyl)pyrimidin-2-yl)-3-(methylsulfinyl)-1H-indole-6-carbonyl)piperazine-1-carboxylat], which inhibition at 1 µM is on record?
A: Its inhibition at 1 µM is 0%.

Q: `CN(C)C(=O)CN1CCN(C(=O)c2ccc3c([S+](C)[O-])cn(-c4ncc(-c5ccccc5F)cn4)c3c2)CC1` (stereo not shown) [Example 395, 2-(4-(1-(5-(2-Fluorophenyl)pyrimidin-2-yl)-3-(methylsulfinyl)-1H-indole-6-carbonyl)piperazin-1-yl)-N,N-dimethylacetamide] was tested. Which inhibition at 1 µM did it give?
A: The inhibition at 1 µM was 0%.

same assay, conditions: inhibition of PDE4B at a test concentration of 1 μM, 1 µM

Q: With `COC1CCN(C(=O)c2ccc3c([S+](C)[O-])cn(-c4ncc(-c5ccccc5F)cn4)c3c2)CC1` (stereo not shown) [Example 381, (1-(5-(2-Fluorophenyl)pyrimidin-2-yl)-3-(methylsulfinyl)-1H-indol-6-yl)(4-methoxypiperidin-1-yl)methanone] as the molecule, how does the Inhibition in % read?
A: Its Inhibition in % is 12%.

molecular target: T1, human PDE4B1; assay: TR-FRET assay using the LANCE Ultra cAMP kit to determine the activity of hPDE4B1; format: biochemical; details: test concentration 1 μM, 1 µM
Text: TR-FRET Assay Using the LANCE® Ultra cAMP Kit to Determine the Activity of hPDE4B1
The effects of the compounds on the activity of the human PDE4B1 was quantified by measuring the production of 5′AMP from cAMP using a human recombinant enzyme expressed in Sf9 cells and the LANCE® Ultra cAMP kit, a TR-FRET detection method from PerkinElmer. The human PDE4B1 enzyme was purchased from SignalChem Lifesciences (Catalog# P92-31BG, Lot# H296-2).
The test compound, reference compound or water (control) was mixed with the enzyme (0.96 U) in a reaction buffer containing 50 mM Tris-HCl, 50 mM MgCl2 and 5 mM DTT (pH 8.5). Thereafter, the reaction was initiated by addition of 500 nM cAMP (substrate) and the mixture was incubated for 30 minutes at room temperature. For control basal measurements, the enzyme was omitted from the reaction mixture. After 30 minutes, the reaction was stopped and diluted by a factor of 100 with the reaction buffer supplemented with 500 μM IBMX. The fluorescence donor (europium chelate-labeled cAMP) and the fluorescence acceptor (anti-cAMP antibody labeled with the ULight™ dye) were then added together with 500 μM IBMX to a 10 μl aliquot. After 60 minutes, the fluorescence transfer corresponding to the amount of residual cAMP was measured at λex=337 nm, λem=620 nm and λem=665 nm using a microplate reader (PHERAstar, BMG). The enzyme activity was determined by dividing the signal measured at 665 nm by that measured at 620 nm (ratio) multiplied by 10000. The results were expressed as percent inhibition of the control enzyme activity. IC50 values (IC50=concentration causing a half-maximal inhibition of control specific activity) were derived from dose response measurements with ten different concentrations (n=3; N=1-3).

Q: How did the “Inhibition in % (inhibition of PDE4B)” value turn out when `Cc1ccnc(-c2cnc(-n3cc([S+](C)[O-])c4ccc(C(=O)N5CCOCC5)cc43)nc2)c1` (single isomer, unassigned) [Example 352, (1-(5-(4-Methylpyridin-2-yl)pyrimidin-2-yl)-3-(methylsulfinyl)-1H-indol-6-yl)(morpholino)methanone] was run?
A: Its value is 95%.

same assay, conditions: test concentration 1 μM, read-out: Inhibition in % (inhibition of PDE4B)

Q: For `Cc1ccnc(-c2cnc(-n3cc([S+](C)[O-])c4ccc(C(=O)N5CCOCC5)cc43)nc2)c1` (single isomer, unassigned) [Example 351, (1-(5-(4-Methylpyridin-2-yl)pyrimidin-2-yl)-3-(methylsulfinyl)-1H-indol-6-yl)(morpholino)methanone], which inhibition at 1 µM is on record?
A: The inhibition at 1 µM was 93%.

same assay, conditions: test concentration 10 μM (marked in cell), 10 µM

Q: `CC(O)c1ccc(F)c(-c2cnc(-n3cc(S(C)(=O)=O)c4ccc(C(=O)N5CCOCC5)cc43)nc2)c1` (single isomer, unassigned) [Example 345, (1-(5-(2-Fluoro-5-(1-hydroxyethyl)phenyl)pyrimidin-2-yl)-3-(methylsulfonyl)-1H-indol-6-yl)(morpholino)methanone] was tested. Which “Inhibition in % (inhibition of PDE4B)” value did it give?
A: The value was 95 (10 μM) %.

same assay, conditions: test concentration 10 μM (marked in cell), read-out: Inhibition in % (inhibition of PDE4B)

Q: How did the inhibition at 10 µM turn out when `CN(CC(N)=O)C(=O)c1ccc2c([S+](C)[O-])cn(-c3ncc(-c4cc(C5CC5)ccn4)cn3)c2c1` (single isomer, unassigned) [Example 333, N-(2-Amino-2-oxoethyl)-1-(5-(4-cyclopropylpyridin-2-yl)pyrimidin-2-yl)-N-methyl-3-(methylsulfinyl)-1H-indole-6-carboxamide] was run?
A: The inhibition at 10 µM was 87%.

Q: How did the inhibition at 10 µM turn out when `CN(CC(N)=O)C(=O)c1ccc2c([S+](C)[O-])cn(-c3ncc(-c4cc(C(C)(C)O)ccc4F)cn3)c2c1` (single isomer, unassigned) [Example 334, N-(2-Amino-2-oxoethyl)-1-(5-(2-fluoro-5-(2-hydroxypropan-2-yl)phenyl)pyrimidin-2-yl)-N-methyl-3-(methylsulfinyl)-1H-indole-6-carboxamide] was run?
A: Its inhibition at 10 µM is 99%.

Q: With `CN(CC(N)=O)C(=O)c1ccc2c([S+](C)[O-])cn(-c3ncc(-c4cc(C5CC5)ccc4F)cn3)c2c1` (single isomer, unassigned) [Example 335, N-(2-Amino-2-oxoethyl)-1-(5-(5-cyclopropyl-2-fluorophenyl)pyrimidin-2-yl)-N-methyl-3-(methylsulfinyl)-1H-indole-6-carboxamide] as the molecule, how does the inhibition at 10 µM read?
A: Its inhibition at 10 µM is 100%.

Q: With `CC(O)c1ccc(F)c(-c2cnc(-n3cc(S(C)(=O)=O)c4ccc(C(=O)N5CCOCC5)cc43)nc2)c1` (single isomer, unassigned) [Example 344, (1-(5-(2-Fluoro-5-(1-hydroxyethyl)phenyl)pyrimidin-2-yl)-3-(methylsulfonyl)-1H-indol-6-yl)(morpholino)methanone] as the molecule, how does the inhibition at 10 µM read?
A: The inhibition at 10 µM was 96%.
